{
  "source": "patent US20220323455A1",
  "about": "“FUSED HETEROCYCLIC DERIVATIVES AS ANTIVIRAL AGENTS” (priority 2019, published 2022)",
  "key": {"HBV": {"test_system": "HBV", "assay": "Anti-HBV activity in HepG2.117 cell line (intracellular HBV DNA, real-time PCR)", "type": "cell-based", "details": "Hepatitis B virus, 72 h; HepG2.117 cells, 3 days of treatment, intracellular HBV DNA, mean value; read-out: HBV-AVE-HepG2.117 EC50 (μM, mean value)", "protocol": "The anti HBV activity was measured using the HepG2.117 cell line, a stable, inducibly HBV producing cell line, which replicates HBV in the absence of doxicycline (Tet-off system). The HepG2 cell line is available from ATCC® under number HB-8065. Transfection of the HepG2 cell line can be as described in Sun and Nassal 2006 Journal of Hepatology 45 (2006) 636-645 “Stable HepG2- and Huh7-based human hepatoma cell lines for efficient regulated expression of infectious hepatitis B virus”.\nFor the antiviral assay, HBV replication was induced, followed by a treatment with serially diluted compound in 96-well plates. After 3 days of treatment, the antiviral activity was determined by quantification of intracellular HBV DNA using real-time PCR and an HBV specific primer set and probe."}, "[1]": {"assay": "Cytotoxicity in HepG2.117 cells (ATPlite Luminescence Assay)", "type": "cell-based", "details": "human, incubated for 3 days, cell viability, mean value, read-out: TOX-HepG2.117 CC50 (μM, mean value)", "protocol": "Cytotoxicity of the compounds was tested using HepG2 or HepG2.117 cells, incubated for 3 days in the presence of compounds. The viability of the cells was assessed using the PERKIN ELMER ATPlite Luminescence Assay System.”"}},
  "data": [
    {"smiles": "C[C@@H]1Cc2nn3c(c2CN1C(=O)c1ccc(Cl)c(Cl)c1)C(F)(F)CC[C@H](CO)C3", "note": "(single isomer, unassigned) [Example C13, (3,4-Dichlorophenyl)[(3R,8*S)-11,11-difluoro-8-(hydroxymethyl)-3-methyl-1,3,4,7,8,9,10,11-octahydro-2H-pyrido[4′,3′:3,4]pyrazolo[1,5-a]azepin-2-yl]methanone]", "values": [
      {"measurement": "EC50", "setting": "HBV", "value": "< 0.195", "unit": "µM"},
      {"measurement": "CC50 at 3 days", "setting": "[1]", "value": 33.6, "unit": "µM"}
    ]}
  ]
}
